Key:
[1] = biological target: Histone deacetylase 1 (Homo sapiens, UniProt Q13547); experiment: Inhibition of recombinant human HDAC1 using Ac-Val-Gly-(NAc)Lys-AMC as substrate incubated for 30 mins by fluorescence based assay
[2] = biological target: T1, Protein deacetylase HDAC6 (Homo sapiens, UniProt Q9UBN7); experiment: Inhibition of recombinant human HDAC6 using Ac-Val-Gly-(NAc)Lys-AMC as substrate incubated for 30 mins by fluorescence based assay
T1 sequence (Q9UBN7 whole entry): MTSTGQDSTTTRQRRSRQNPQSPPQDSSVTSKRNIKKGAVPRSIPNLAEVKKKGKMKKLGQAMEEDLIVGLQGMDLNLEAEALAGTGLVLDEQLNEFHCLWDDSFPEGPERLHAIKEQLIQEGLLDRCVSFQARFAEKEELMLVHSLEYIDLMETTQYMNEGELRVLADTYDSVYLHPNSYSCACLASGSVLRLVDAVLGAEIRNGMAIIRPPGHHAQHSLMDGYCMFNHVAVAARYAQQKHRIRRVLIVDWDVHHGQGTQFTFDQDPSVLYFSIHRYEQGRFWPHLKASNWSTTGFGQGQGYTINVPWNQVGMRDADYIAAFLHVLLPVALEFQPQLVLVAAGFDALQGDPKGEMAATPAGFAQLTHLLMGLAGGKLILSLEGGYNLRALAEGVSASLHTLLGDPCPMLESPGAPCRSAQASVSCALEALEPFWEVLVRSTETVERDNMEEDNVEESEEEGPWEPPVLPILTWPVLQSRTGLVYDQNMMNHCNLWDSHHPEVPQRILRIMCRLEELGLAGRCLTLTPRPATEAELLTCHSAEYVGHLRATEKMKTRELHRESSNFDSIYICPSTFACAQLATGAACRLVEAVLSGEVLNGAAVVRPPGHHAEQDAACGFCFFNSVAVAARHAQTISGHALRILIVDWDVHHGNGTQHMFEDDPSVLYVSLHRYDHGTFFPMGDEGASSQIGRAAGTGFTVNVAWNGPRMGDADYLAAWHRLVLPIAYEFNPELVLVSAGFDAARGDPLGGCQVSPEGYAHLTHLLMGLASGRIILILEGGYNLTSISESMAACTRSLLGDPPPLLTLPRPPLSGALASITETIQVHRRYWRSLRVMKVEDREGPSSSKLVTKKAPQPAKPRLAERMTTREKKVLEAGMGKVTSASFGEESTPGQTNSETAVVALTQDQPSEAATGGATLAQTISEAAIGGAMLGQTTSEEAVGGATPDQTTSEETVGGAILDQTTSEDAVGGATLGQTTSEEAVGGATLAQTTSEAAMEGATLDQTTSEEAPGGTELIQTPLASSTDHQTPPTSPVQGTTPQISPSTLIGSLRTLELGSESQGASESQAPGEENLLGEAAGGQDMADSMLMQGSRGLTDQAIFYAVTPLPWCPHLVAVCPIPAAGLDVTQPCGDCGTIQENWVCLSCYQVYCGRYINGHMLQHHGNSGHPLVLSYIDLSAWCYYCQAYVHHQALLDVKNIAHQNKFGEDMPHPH

[3] = system: MCF7; experiment: Antiproliferative activity against human MCF7 cells expressing ER assessed as inhibition of cell viability at high concentration incubated for 12 days with every 3 day treatment by Alamar blue staining based assay relative to control; format: functional; conditions: time 12 day

Sequence of Histone deacetylase 1 (Q13547 whole entry): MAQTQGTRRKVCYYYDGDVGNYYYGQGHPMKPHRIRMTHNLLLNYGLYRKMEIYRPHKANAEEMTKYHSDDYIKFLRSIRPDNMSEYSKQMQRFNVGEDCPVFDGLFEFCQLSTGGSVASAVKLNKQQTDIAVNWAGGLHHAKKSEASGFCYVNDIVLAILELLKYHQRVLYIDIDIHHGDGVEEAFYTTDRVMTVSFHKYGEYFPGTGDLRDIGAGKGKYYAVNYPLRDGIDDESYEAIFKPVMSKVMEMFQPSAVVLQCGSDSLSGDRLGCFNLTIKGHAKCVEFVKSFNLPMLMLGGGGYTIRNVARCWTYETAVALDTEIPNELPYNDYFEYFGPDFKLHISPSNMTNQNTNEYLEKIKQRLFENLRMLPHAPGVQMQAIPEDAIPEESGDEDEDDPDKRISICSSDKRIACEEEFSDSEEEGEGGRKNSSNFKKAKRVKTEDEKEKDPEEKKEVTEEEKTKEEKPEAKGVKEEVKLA

Row | IC50 [1] | IC50 [2] | SMILES | inhibition (INH) [3]
1 | 0.344 µM | 0.333 µM | O=C(CCCCCCc1ccc(-c2sc3cc(O)ccc3c2C(=O)c2ccc(OCCN3CCCCC3)cc2)cc1)NO | 
2 | 0.132 µM | 0.021 µM | O=C(CCCCCOc1ccc(-c2sc3cc(O)ccc3c2C(=O)c2ccc(OCCN3CCCCC3)cc2)cc1)NO | 
3 | 0.464 µM | 0.202 µM | O=C(CCc1ccc(-c2sc3cc(O)ccc3c2C(=O)c2ccc(OCCN3CCCCC3)cc2)cc1)NO | 100%
4 | 0.389 µM | 0.123 µM | O=C(CCCCOc1ccc(-c2sc3cc(O)ccc3c2C(=O)c2ccc(OCCN3CCCCC3)cc2)cc1)NO | 
5 | 5.99 µM | 0.091 µM | O=C(CCCOc1ccc(-c2sc3cc(O)ccc3c2C(=O)c2ccc(OCCN3CCCCC3)cc2)cc1)NO | 100%
6 | 0.257 µM | 0.221 µM | O=C(CCCCc1ccc(-c2sc3cc(O)ccc3c2C(=O)c2ccc(OCCN3CCCCC3)cc2)cc1)NO | 
7 | 0.012 µM | 0.297 µM | O=C(CCCCCc1ccc(-c2sc3cc(O)ccc3c2C(=O)c2ccc(OCCN3CCCCC3)cc2)cc1)NO | 
